The text below walks through data of patent US4645778A, “2-(N-pyrrolidino)-3-isobutoxy-n-substituted-phenyl-n-benzyl-propylamines, their preparation and pharmaceutical use” (Riom Laboratoires C.E.R.M. "RL-Cerm"S.A., priority 1983, dated 1987).

Where two headings read alike, the source gives them in different places.

The test system of test [1] is papillary muscle. The test can be described thus: Cardiac tropism: calcium antagonism on rabbit papillary muscle (inotropic effect of calcium chloride). The settings on record: for cardiac anti-calcium activity / cardiac tropism (in words): cardiac test, summary of Table I; for PAPILLARY MUSCLE pA2 / PAPILLARY MUSCLE pD'2: rabbit papillary muscle. As to the method: (§1) In vitro, the calcium antagonism activity was investigated in accordance with the methods summarised below.
Investiqation of a cardiac tropism
A rabbit's papillary muscle was placed in a KREBS-HENSELEIT solution kept at 37° C. and was stimulated electrically at a frequency of 1.5 Hz (5 ms of pulse at 15 V).
The positive inotropic effect of calcium chloride was investigated by the method of cumulative dose-response curves.
The substances to be studied were added to the solution in which the muscle was kept, 15 minutes prior to determining the agonist curves.
(§2) The conventional parameters of molecular pharmacology are subsequently determined (pA2 for a competitive antagonism and pD'2 for a non-competitive anatagonism), using the technique of VAN ROSSUM [ARCH. INT. PHARMACODYN. THER. 143, 299-330 (1963)].

The subject of test [2] is isolated aorta. Put plainly: Vascular tropism: anti-calcium effect on rabbit isolated aorta (contraction by calcium chloride). The settings on record: for ISOLATED AORTA pA2 / ISOLATED AORTA pD'2: rabbit isolated aorta, K+ depolarised, 37° C., 15 min; for ISOLATED AORTA pA2: competitive antagonism vs calcium chloride; for ISOLATED AORTA pD'2: non-competitive antagonism vs calcium chloride; for vascular anti-calcium activity / vascular tropism (in words): vascular test, summary of Table I. As to the method:
as §1
Investigation of a vascular tropism
A rabbit's isolated aorta, cut into spirals, was placed in a KREBS solution kept at 37° C., free from Ca^++ and enriched with K^+ ([…] of KCL/liter) for depolarisation.
The contracting effect of cumulative concentrations of calcium chloride was investigated and the anti-calcium effect of the compounds studied was evaluated 15 minutes after their addition to the solution in which the aorta was kept.
as §2

Test [3] concerns anaesthetised dog. The test can be described thus: Anti-angina activity: haemodynamic effects in the anaesthetised dog. The conditions noted are these: 5 mg.kg^-1 intravenously; for anti-anginal activity (in words): summary of Table II; for change in vivo at 5 mg/kg: Canis lupus familiaris, iv. Type of test: in vivo. As to the method: In vivo, the anti-angina activity was investigated by measuring the haemodynamic effects in the anaesthetised dog, in accordance with the method summarised below.
The following parameters were recorded on the dog anaesthetised with chloralose (100 mg.kg^-1 administered intravenously):
pulse rate, by means of subcutaneous ECG electrodes connected to a BECKMAN cardiotachymeter (branch D II),
coronary arterial flow recorded by means of a STATHAM electromagnetic flowmeter and
antitachycardiac action (inhibition of the positive chronotropic effects of isoprenaline).
These parameters were recorded continuously on a BECKMAN dynograph and at the same time the duration of the action was measured.
The compounds of the invention are administered intravenously at a dose of 5 mg.kg^-1.

Where [4] appears, read: 37° C., 15 min preincubation, competitive antagonism vs calcium chloride.
Where [5] appears, read: read-out: CORONARY FLOW Variation.
Where [6] appears, read: inhibition of positive chronotropic effects of isoprenaline, read-out: ANTI-TACHYCARDIAC ACTION Variation.
Where [7] appears, read: inhibition of positive chronotropic effects of isoprenaline.

`Cc1ccc(N(Cc2ccccc2)CC(COCC(C)C)N2CCCC2)cc1` (stereo not shown) [Compound 1]: the “cardiac anti-calcium activity / cardiac tropism (in words)” value in test [1] is on record as “more marked cardiac tropism”. In addition, the “PAPILLARY MUSCLE pA2” value in test [1] (setting [4]) was 4.30 ± 0.24. In addition, in test [1] (37° C., 15 min preincubation, non-competitive antagonism vs calcium chloride), the “PAPILLARY MUSCLE pD'2” value worked out at 3.81 ± 0.20. In test [2], the “ISOLATED AORTA pA2” value worked out at 4.83 ± 0.28 and the “ISOLATED AORTA pD'2” value stood at 5.08 ± 0.27.

`CC(C)COCC(CN(Cc1ccccc1)c1ccc(Cl)c(Cl)c1)N1CCCC1` (stereo not shown) [Compound 2]: in test [3], the “CORONARY FLOW Duration” value amounted to 10 min, the “PULSE RATE Duration” value is on record as > 45 min and the “anti-anginal activity (in words)” value is reported as “most valuable anti-anginal activity”. The change in vivo at 5 mg/kg in test [3] (setting [5]) came out at 39%. Besides, the change in vivo at 5 mg/kg in test [3] (read-out: PULSE RATE Variation) was -11%. In addition, the change in vivo at 5 mg/kg in test [3] (setting [6]) was -51%. The “ANTI-TACHYCARDIAC ACTION Duration” value in test [3] (setting [7]) is given as 15 min.

Consider `COc1ccc(N(Cc2ccccc2)CC(COCC(C)C)N2CCCC2)cc1` (stereo not shown) [Compound 3], for which the “PAPILLARY MUSCLE pD'2” value in test [1] (at 10^-4 M, 15 min) stood at 4.5. Also, the “cardiac anti-calcium activity / cardiac tropism (in words)” value in test [1] is “more marked cardiac tropism”. Also, the “PAPILLARY MUSCLE pA2” value in test [1] (setting [4]) is listed as 4.87 ± 0.40. In test [2], the “ISOLATED AORTA pA2” value is 4.70 ± 0.38 and the “ISOLATED AORTA pD'2” value worked out at 4.00 ± 0.24. In addition, in test [3], the “CORONARY FLOW Duration” value stood at 20 min, the “PULSE RATE Duration” value is recorded as > 45 min and the “anti-anginal activity (in words)” value was “most valuable anti-anginal activity”. Further, the change in vivo at 5 mg/kg in test [3] (setting [5]) was 196%. Also, the change in vivo at 5 mg/kg in test [3] (read-out: PULSE RATE Variation) is -24%. For the same molecule, in test [3] (setting [6]), the change in vivo at 5 mg/kg is -63%. Also, the “ANTI-TACHYCARDIAC ACTION Duration” value in test [3] (setting [7]) turned out to be 30 min.

For the molecule `CC(C)COCC(CN(Cc1ccccc1)c1ccc(Cl)cc1)N1CCCC1` (stereo not shown) [Compound 4], in test [3], the “CORONARY FLOW Duration” value was 3 min. In addition, the “PULSE RATE Duration” value in test [3] is listed as > 45 min. The change in vivo at 5 mg/kg is 32% in test [3] (setting [5]), -27% in test [3] (read-out: PULSE RATE Variation) and -60% in test [3] (setting [6]). Moreover, in test [3] (setting [7]), the “ANTI-TACHYCARDIAC ACTION Duration” value was > 45 min.

`CC(C)COCC(CN(Cc1ccccc1)c1cccc(Cl)c1)N1CCCC1` (stereo not shown) [Compound 5, 2-(N-pyrrolidino)-3-isobutoxy-N-(3-chloro)-phenyl-N-benzyl-propylamine]: the “PAPILLARY MUSCLE pA2” value in test [1] (at 10^-4 M) was “Inactive”. For the same molecule, in test [2], the “ISOLATED AORTA pA2” value was determined as 4.83 ± 0.27 and the “ISOLATED AORTA pD'2” value worked out at 4.71 ± 0.20. In addition, in test [3], the “CORONARY FLOW Duration” value is 15 min, the “PULSE RATE Duration” value is > 45 min and the “anti-anginal activity (in words)” value is given as “most valuable anti-anginal activity”. Moreover, the change in vivo at 5 mg/kg in test [3] (setting [5]) came out at 98%. Further, the change in vivo at 5 mg/kg in test [3] (read-out: PULSE RATE Variation) was -20%. The change in vivo at 5 mg/kg in test [3] (setting [6]) was -45%. Moreover, the “ANTI-TACHYCARDIAC ACTION Duration” value in test [3] (setting [7]) was 15 min.

In the case of `CC(C)COCC(CN(Cc1ccccc1)c1cccc(C(F)(F)F)c1)N1CCCC1` (stereo not shown) [Compound 6], in test [1] (at 10^-4 M, 15 min), the “PAPILLARY MUSCLE pA2” value was 3.41. In addition, in test [2], the “ISOLATED AORTA pA2” value came to 5.19 ± 0.37, the “ISOLATED AORTA pD'2” value was 3.73 ± 0.50 and the “vascular anti-calcium activity / vascular tropism (in words)” value was “predominantly vascular tropism”. In addition, in test [3], the “CORONARY FLOW Duration” value is given as 1 min and the “PULSE RATE Duration” value is listed as > 45 min. Also, in test [3] (setting [5]), the change in vivo at 5 mg/kg was 20%. The change in vivo at 5 mg/kg in test [3] (read-out: PULSE RATE Variation) was -32%. The change in vivo at 5 mg/kg in test [3] (setting [6]) is -64%. For the same molecule, the “ANTI-TACHYCARDIAC ACTION Duration” value in test [3] (setting [7]) is given as > 45 min.

Consider `CC(C)COCC(CN(Cc1ccccc1)c1cc(Cl)cc(Cl)c1)N1CCCC1` (stereo not shown) [Compound 7], for which the “PAPILLARY MUSCLE pA2” value in test [1] (at 10^-4 M) was “Inactive”. Besides, in test [2], the “ISOLATED AORTA pA2” value is 4.70 ±0.60 and the “ISOLATED AORTA pD'2” value is recorded as 3.85 ± 0.43. Further, in test [3], the “CORONARY FLOW Duration” value is 5 min and the “PULSE RATE Duration” value is 45 min. Also, in test [3] (setting [5]), the change in vivo at 5 mg/kg turned out to be 31%. Further, the change in vivo at 5 mg/kg in test [3] (read-out: PULSE RATE Variation) is -23%. Further, the change in vivo at 5 mg/kg in test [3] (setting [6]) is -54%. The “ANTI-TACHYCARDIAC ACTION Duration” value in test [3] (setting [7]) is 45 min.

Take `Cc1cccc(C)c1N(Cc1ccccc1)CC(COCC(C)C)N1CCCC1` (stereo not shown) [Compound 8]: in test [1] (at 10^-4 M, 15 min), the “PAPILLARY MUSCLE pD'2” value is recorded as 3.69. Also, the “PAPILLARY MUSCLE pA2” value in test [1] (at 10^-5 M, 15 min) worked out at 4.67. For the same molecule, the “cardiac anti-calcium activity / cardiac tropism (in words)” value in test [1] is listed as “noteworthy”. In test [2], the “ISOLATED AORTA pA2” value is listed as 5.21 ± 0.65, the “ISOLATED AORTA pD'2” value was found to be 4.87 ± 0.48 and the “vascular anti-calcium activity / vascular tropism (in words)” value is on record as “noteworthy”. In test [3], the “CORONARY FLOW Duration” value worked out at 15 min, the “PULSE RATE Duration” value is given as 35 min and the “anti-anginal activity (in words)” value is on record as “most valuable anti-anginal activity”. Further, in test [3] (setting [5]), the change in vivo at 5 mg/kg amounted to 85%. Moreover, the change in vivo at 5 mg/kg in test [3] (read-out: PULSE RATE Variation) is -36%. Also, the change in vivo at 5 mg/kg in test [3] (setting [6]) is -28%. In addition, the “ANTI-TACHYCARDIAC ACTION Duration” value in test [3] (setting [7]) came to 15 min.

`CC(C)COCC(CN(Cc1ccccc1)c1ccc2c(c1)OCO2)N1CCCC1` (stereo not shown) [Compound 11, 2-(N-pyrrolidino)-3-isobutoxy-N-(3,4-methylenedioxy)-phenyl-N-benzyl-propylamine]: the “PAPILLARY MUSCLE pD'2” value in test [1] (at 10^-4 M) is “total”. Also, the “cardiac anti-calcium activity / cardiac tropism (in words)” value in test [1] is given as “about the highest activity”. Moreover, the “PAPILLARY MUSCLE pA2” value in test [1] (setting [4]) worked out at 5.44 ± 0.26. For the same molecule, in test [2], the “ISOLATED AORTA pA2” value is on record as 4.94 ± 0.43, the “ISOLATED AORTA pD'2” value worked out at 4.80 ± 0.05 and the “vascular anti-calcium activity / vascular tropism (in words)” value is given as “about the highest activity”. Also, in test [3], the “CORONARY FLOW Duration” value is listed as 20 min, the “PULSE RATE Duration” value is > 45 min and the “anti-anginal activity (in words)” value is listed as “most valuable anti-anginal activity”. Besides, the change in vivo at 5 mg/kg in test [3] (setting [5]) is 116%. Besides, the change in vivo at 5 mg/kg in test [3] (read-out: PULSE RATE Variation) was -50%. Moreover, the change in vivo at 5 mg/kg in test [3] (setting [6]) was -47%. In addition, the “ANTI-TACHYCARDIAC ACTION Duration” value in test [3] (setting [7]) is given as 45 min.
